According to EP2785358B1, “INSULIN-MIMETICS AS THERAPEUTIC ADJUNCTS FOR BONE REGENERATION” (priority 2011, dated 2013):
Values joined by “and” are separate entries in the source; they are usually repeats but may differ in a detail not shown here. Identical values can stand only once. Marks after values point to notes of the source that are not given here.

Tests used:
femur fractures [1] = test: Torsional mechanical testing, local VAC without a carrier in normal rats; type: in vivo, non-diabetic BB Wistar rats; design: Percent Effective Shear Modulus / Percent Effective Shear Stress: scale not given: direction of the effect not stated beside the values
Experimental: A closed mid-diaphyseal fracture surgery was performed on the right femur of each rat as described previously. […] A closed, midshaft fracture was then created using a three-point bending fracture instrument (BBC Specialty Automotive, Linden NJ) and confirmed with X-rays immediately post-fracture.

femur fractures [2] = test: Long-term radiographic analysis at twelve weeks, local VAC; type: in vivo, normal (non-diabetic) rats; conditions: for ectopic bone formation on radiographs: twelve weeks post-fracture
Experimental: The effect of local vanadium therapy on healing of femur fractures in normal (non-diabetic) rats was measured by radiographic analysis.

[3] = Vanadium quantification in femur by atomic absorption spectrophotometry; type: in vivo, BB Wistar rats; conditions: 0.1 mL of 4.35 mg/mL VAC solution (approximately 1.5 mg VAC/kg) into femoral canal
Experimental: BB Wistar rats were anesthetized and confirmed to be non-responsive to external stimuli before beginning the surgical procedure. The anesthetized rat was be exsanguinated by cardiac puncture using a 10 ml syringe with a 22 gauge needle after shallow puncture just lateral to the sternum and through the intercostal space. After puncturing the dermis and cardiac wall slight backpressure was placed on the plunger to withdraw blood from the ventricle. The collected blood was transferred to an appropriate container used for collection of plasma (heparinized) or serum (non-heparinized). Following the cardiac puncture, the rats were euthanized via cervical dislocation.
The excised femora were be stripped of adhering muscle, tendon and other tissue after which the bones were rinsed three times with deionized water, and then placed on glassine paper and air dried. The pin was rinsed once and stored in a clean conical tube. The liver, kidneys, brain, and left humerous collected were rinsed 3x and air dried. The objective of "drying" was to remove adhering water droplets after the water rinse and to allow the true tissue weight to be recorded as precisely as possible. […] The organs were then placed into a low temperature (-80 degrees Celsius) freezer for storage until future analysis (quantification not currently planned). […]

femur fractures [4] = test: Histomorphometry, local VAC without a carrier; type: in vivo, BB Wistar rats; conditions: for % Cartilage / % Mineralized Tissue / Callus Area: no carrier
Excerpt: Two independent reviewers were used to minimize inconsistencies.

femur fractures [5] = test: Early immunohistochemistry (BrdU cell proliferation), local VAC; type: in vivo, BB Wistar rats
Experimental: At days 2, 4, and 7, and 10, animals were injected intraperitoneally with 30 mg/kg of 5-bromo-2'deoxyuridine (BrdU, Sigma Chemical Co., St. Louis, MO) one hour prior to sacrifice to label replicating cells as a measure of cellular proliferation. The fractured femurs were resected and fixed in formalin, decalcified (Immunocal, Decal Corp., Tallman, NY), embedded in paraffin, and sectioned longitudinally (5 µm thick). Cells positive for BrdU incorporation were detected by immunohistochemistry using commercially available reagents (DAKO Corp., Carpentaria, California). Digital images of each fracture were collected with an Olympus BH2-RFCA microscope equipped with a Nikon DXM1200f camera. For each specimen, callus area was measured and the BrdU positive cells in the periosteal callus region were counted using Image Pro Plus software. All BrdU positive cells in the external callus to a maximum of 1 cm proximal and distal of the fracture site and 3 mm from the external surface of the femur were counted. The number of BrdU positive cells was normalized per unit area of callus and only one datum per rat (BrdU positive cells per mm2) was used for the statistical analysis.

[6] = VAC 0.5 mg/kg local, no carrier, normal rats, 4 weeks
[7] = VAC 0.5 mg/kg local, no carrier, normal rats, 4 weeks, normalized to intact femur
[8] = VAC 1.5 mg/kg Autoclaved, no carrier, four weeks
[9] = VAC 1.5 mg/kg Gamma Irradiated, no carrier, four weeks
[10] = VAC 1.5 mg/kg local, no carrier, normal rats, 5 weeks
[11] = VAC 1.5 mg/kg local, rats of advanced age (190-195 days), four weeks
[12] = VAC 1.5 mg/kg without sterilization, no carrier, four weeks
[13] = VAC 1.5 mg/kg without sterilization, no carrier, four weeks, normalized to intact femur
[14] = VAC 3.0 mg/kg local, no carrier, normal rats, 4 weeks
[15] = VAC 3.0 mg/kg local, no carrier, normal rats, 4 weeks, normalized to intact femur
[16] = VAC 1.5 mg/kg local, 10 Days Post-Fracture
[17] = VAC 1.5 mg/kg local, 14 Days Post-Fracture
[18] = VAC 1.5 mg/kg local, 21 Days Post-Fracture
[19] = VAC 3.0 mg/kg local, 10 Days Post-Fracture
[20] = VAC 3.0 mg/kg local, 14 Days Post-Fracture
[21] = VAC 3.0 mg/kg local, 21 Days Post-Fracture

CC(=O)/C=C(/C)[O-].CC(=O)/C=C(/C)[O-].[O]=[V+2] [VAC, Vanadyl acetylacetonate]
Percent maximum torsional rigidity (femur fractures [1]; VAC 0.25 mg/kg local, no carrier, normal rats, 4 weeks, normalized to intact femur): 67 ± 21 ^∗ Percent | Maximum Torque to Failure (femur fractures [1]; [6]): 362 ± 49 ^∗,# Nmm | Maximum Torsional Rigidity (femur fractures [1]; [6]): 45,877 ± 13,079^∗ Nmm^2/rad | Percent Maximum Torque to Failure (femur fractures [1]; [7]): 72 ± 19 ^∗ Percent | Percent maximum torsional rigidity (femur fractures [1]; [7]): 103 ± 23 ^∗,# Percent | Effective Shear Modulus (femur fractures [1]; [8]): 9.6×10^2 ± 7.8×10^2 MPa | Maximum Torsional Rigidity (femur fractures [1]; [8]): 3.4×10^4 ± 1.5×10^4* Nmm^2/rad and 3.4×10^4 ± 1.5×10^4∗ Nmm^2/rad | Percent maximum torsional rigidity (femur fractures [1]; VAC 1.5 mg/kg Autoclaved, no carrier, four weeks, normalized to intact femur): 70 ± 31 ^∗ Percent | Effective Shear Modulus (femur fractures [1]; [9]): 7.9×10^2 ± 2.4×10^2 MPa | Maximum Torsional Rigidity (femur fractures [1]; [9]): 2.6×10^4 ± 3.7×10^3 Nmm^2/rad | Maximum Torque to Failure (femur fractures [1]; [10]): 471 ± 91 Nmm | Maximum Torsional Rigidity (femur fractures [1]; [10]): 34,522 ± 8,347^* Nmm^2/rad | Effective Shear Modulus (femur fractures [1]; [11]): 1.3×10^3 ± 1.3×10^3 MPa | Effective Shear Stress (femur fractures [1]; [11]): 43± 17 MPa | Maximum Torsional Rigidity (femur fractures [1]; [11]): 3.0×10^4 ± 1.8×10^4 Nmm^2/rad | Mean Angle at Failure (femur fractures [1]; [11]): 12± 4 degrees | Percent Maximum Torque to Failure (femur fractures [1]; VAC 1.5 mg/kg local, rats of advanced age (190-195 days), four weeks, normalized to intact femur): 44 ± 10^∗ Percent | Effective Shear Modulus (femur fractures [1]; [12]): 2.5×10^3 ± 2.4×10^3 MPa | Effective Shear Stress (femur fractures [1]; [12]): 69 ± 59 MPa | Maximum Torque to Failure (femur fractures [1]; [12]): 329 ± 117 ^∗ Nmm | Maximum Torsional Rigidity (femur fractures [1]; [12]): 3.5×10^4 ± 1.7×10^4* Nmm^2/rad and 3.5×10^4 ± 1.7×10^4∗ Nmm^2/rad | Percent Effective Shear Modulus (femur fractures [1]; [13]): 23 ± 12 ^∗ Percent | Percent maximum torsional rigidity (femur fractures [1]; [13]): 76 ± 28 ^∗ Percent | Effective Shear Modulus (femur fractures [1]; [14]): 2,948 ± 1,218 ^∗ MPa | Effective Shear Stress (femur fractures [1]; [14]): 101 ± 18 ^∗,#,& MPa | Maximum Torque to Failure (femur fractures [1]; [14]): 409 ± 43 ^∗,# Nmm | Maximum Torsional Rigidity (femur fractures [1]; [14]): 41,007 ± 11,236 ^∗ Nmm^2/rad | Percent Effective Shear Modulus (femur fractures [1]; [15]): 20 ± 11 ^∗ Percent | Percent Effective Shear Stress (femur fractures [1]; [15]): 30 ± 12 ^∗,# Percent | Percent Maximum Torque to Failure (femur fractures [1]; [15]): 79 ± 12 ^∗ Percent | Percent maximum torsional rigidity (femur fractures [1]; [15]): 78 ± 10 ^∗ Percent | Maximum Torsional Rigidity (femur fractures [1]; VAC 3.0 mg/kg local, no carrier, normal rats, 5 weeks): 37,496 ± 12,846^∗ Nmm^2/rad | increase in mechanical parameter of torsion (femur fractures [1]; VAC therapeutic dosage range 0.5 to 3.0 mg/Kg): two to three-fold | ectopic bone formation on radiographs (femur fractures [2]; VAC high (3.0 mg/kg)): no evidence of ectopic bone formation | ectopic bone formation on radiographs (femur fractures [2]; VAC low (1.5 mg/kg)): no evidence of ectopic bone formation | toxic/carcinogenic effect (remodeling of femora) (femur fractures [2]; local VAC, throughout fracture healing, normal remodeling): no evidence of a toxic/carcinogenic effect | time locally injected VAC remains bound within the fractured femora [3]: approximately two weeks | % Cartilage (femur fractures [4]; [16]): 30.6 ± 12.4^∗ (n=7) % | % Mineralized Tissue (femur fractures [4]; [16]): 15.8 ± 5.1 (n=7) % | Callus Area (femur fractures [4]; [16]): 18.4 ± 3.6 (n=7) mm^2 | % Cartilage (femur fractures [4]; [17]): 14.2 ± 4.9 (n=5) % | % Mineralized Tissue (femur fractures [4]; [17]): 21.3 ± 2.1^∗ (n=5) % | Callus Area (femur fractures [4]; [17]): 21.7 ± 5.0 (n=5) mm^2 | % Cartilage (femur fractures [4]; [18]): 11.0± 4.7 (n=5) % | % Mineralized Tissue (femur fractures [4]; [18]): 32.7 ± 2.9^∗ (n=5) % | Callus Area (femur fractures [4]; [18]): 20.1 ± 4.5 (n=5) mm^2 | percent cartilage compared to controls (femur fractures [4]; VAC 1.5 mg/kg, 7 days (and 10 days), p < 0.05): statistically higher | % Cartilage (femur fractures [4]; [19]): 17.8± 5.5 (n=5) % | % Mineralized Tissue (femur fractures [4]; [19]): 15.2 ± 3.4 (n=5) % | Callus Area (femur fractures [4]; [19]): 18.6 ± 2.9 (n=5) mm^2 | % Cartilage (femur fractures [4]; [20]): 13.0 ± 6.4 (n=5) % | % Mineralized Tissue (femur fractures [4]; [20]): 21.9 ± 3.2^∗ (n=5) % | Callus Area (femur fractures [4]; [20]): 19.3 ± 3.1 (n=5) mm^2 | % Cartilage (femur fractures [4]; [21]): 9.4± 5.7 (n=4) % | % Mineralized Tissue (femur fractures [4]; [21]): 33.4 ± 5.2 (n=4) % | Callus Area (femur fractures [4]; [21]): 20.3± 5.1 (n=4) mm^2 | cell proliferation (BrdU positive cells) in the periosteum versus control (femur fractures [5]; seven and ten days post-fracture, p < 0.05): significantly more proliferating cells per unit area | cell proliferation (BrdU positive cells) versus control (femur fractures [5]; two or four days post-fracture): no significant differences
